Data set [1] concerns MLL-AF9-induced AML leukemia. In words: Syngeneic MLL-AF9 induced AML leukemia survival model. The format is in vivo, mice. The note with it: 40 mg/kg BID 10 days with cytarabine/DOX. Here is the method:
The impact of a compound of Formula (I) when administered adjunctively with cytarabine/DOX chemotherapy was evaluated in the syngeneic MLL-AF9 induced AML leukemia model.
Bone marrow from mice bearing MLL-AF9-inducted leukemia was harvested and enriched for kit+ cells and frozen in aliquots for subsequent transplant. Recipient mice were then injected with 3×10^4 leukemic cells 2 days after conditioning (Study day 0). Six days after leukemic injection, mice were randomized into 3 groups (n=8/group): a group administered a compound of Formula (I) at 40 mg/kg BID (i.e. 80 mg/kg per day) for 10 days, a group administered cytarabine/DOX (cytarabine at 100 mg/kg QD for 5 days, DOX at 1 mg/kg QD for 2 days), and a group administered a combined regimen of cytarabine/DOX/compound of Formula (I).

Data set [2] deals with relapsed/refractory (R/R) AML. In words: Exposure-response analysis for efficacy. Format: in vivo, human. The note with it: 46 R/R AML subjects; 5, 10, 20 mg/kg BID with MEC. On the procedure: To generate exposure metrics for the analyses in Example 14 and Example 15, a Pop-PK analysis, based on sampling of plasma concentrations (Cp) of the compound of Formula (I) during induction treatment, was conducted to identify an appropriate PK model, key covariates of the model, and to generate post hoc population PK metrics for all patients sampled for PK. The Pop-PK analysis comprised 59 subjects, 46 subjects diagnosed with relapsed/refractory (R/R) AML who were administered a compound of Formula (I) with MEC chemotherapy and 13 older subjects (aged 60 years or older) with newly diagnosed AML who were administered a compound of Formula (I) with 7+3 chemotherapy. Pop-PK modeling identified a three compartment model with renal function as the only significant covariate.
For Example 14, Exposure-Response (“E-R”) analysis evaluating efficacy measures against PK metrics was conducted using clinical response efficacy data from the 46 R/R AML subjects. R/R AML subjects were administered MEC chemotherapy and 5, 10, and 20 mg/kg of a compound of Formula (I) BID (i.e. 10, 20, and 40 mg/kg per day).
Exposure metrics were generated using the Pop-PK model described above.
Using clinical measures of efficacy described in Example 13 each subject was assigned to one of five clinical response categories: CR, CRi, MLFS, PD, and death. […]

For data set [3], the system named is MLL-AF9 leukemic cells. Description: Surviving LSC after high dose cytarabine, limiting dilution transplantation. The format is in vivo, mice. The note with it: with high dose cytarabine (2 x 900 mg/kg). On the procedure:
Wild-type mice were transplanted with MLL-AF9 leukemic cells and following engraftment, treated with high dose cytarabine (2 doses of 900 mg/kg at a 12-hour interval (1800 mg/kg total)) alone or in combination with a compound of Formula (I). Bone-marrow cells were harvested 24 hours after treatment and the surviving functional LSCs were quantified by limiting dilution transplantation assays in irradiated wild-type syngeneic recipients. The proportion of recipients who developed leukemia was used to calculate the number of surviving LSC by Poisson's distribution.

The test system of data set [4] is relapsed/refractory type acute myeloid leukemia (AML). In words: Phase 1 clinical outcomes, relapsed/refractory AML, sodium salt infusion with MEC. Format: in vivo. The settings on record: R/R AML. On the procedure:
Three cohorts of 6-7 human subjects with relapsed/refractory type acute myeloid leukemia (AML) each received a total of 15 infusions of 5, 10, or 20 mg/kg/dose of the compound of Formula (I), administered as the sodium salt, over 8 days with a nominal infusion duration of 20 minutes. The nominal infusion duration of 20 minutes was constant across cohorts (e.g., a slower infusion rate was used for the administration of the 5 mg/kg/dose arm than for the 10 mg/kg/dose arm). The formulation for the infusion solution was as follows: […]
The first dose of a compound of Formula (I) was administered 24 hours±1 hour prior to the first dose of MEC (mitoxantrone, etoposide, and cytarabine) induction chemotherapy as a sentinel dose to evaluate the effect of the compound of Formula (I) alone (i.e., a single dose of 5, 10, or 20 mg/kg the day before the first chemotherapy day). The compound of Formula (I) was then administered every 12 hours±1 hour on chemotherapy days, starting 2 hours prior to chemotherapy (i.e., 10, 20, or 40 mg/kg per day on chemotherapy days). […] MEC chemotherapy was administered on Days 2-6.
The clinical outcome for each subject was assessed at the time of count recovery following completion of induction chemotherapy. Subjects were assigned to one of four response groups: complete remission (“CR”); complete remission with incomplete count recovery (“CRi”); morphologic leukemia-free state (“MLFS”); persistent disease (“PD”). Complete remission was defined as bone marrow blasts <5%; absence of circulating blasts and blasts with Auer rods; absence of extramedullary disease; ANC ≥1.0×10^9/L and platelets ≥100,000×10^9/L. Complete remission with incomplete recovery was defined as: all CR criteria except for residual neutropenia (<1.0×10^9/L) or thrombocytopenia (<100,000×10^9/L). Morphologic leukemia-free state was defined as: bone marrow blasts <5%; absence of blasts with Auer rods; absence of extramedullary disease; no hematologic recovery required. Persistent disease was defined as: bone marrow blasts >5%.

The nature of data set [5]: 5-FU induced mucositis assay. Format: in vivo, Mice (C57bl/6). The note with it: 20 mg/kg IP BID 4 days after second 5-FU injection. On the procedure:
Mice (C57bl/6) were treated with 150 mg/kg of 5-fluorouracil (5-FU) intraperitoneal (IP) on days 0 and 10. After the second injection of 5-FU, the mice were treated with a compound of Formula (I) (20 mg/kg in saline, IP, BID (i.e. 40 mg/kg per day)) or saline alone (0.15 M NaCl) for 4 days. Mice were then sacrificed and the small intestines were removed and weighed to determine the degree of inflammation. […] FIG. 1B illustrates that intestinal erosion, villous loss, and macrophage infiltration after administration of chemotherapy were ameliorated by concurrent administration of a compound of Formula (I).

In data set [1], `CC[C@@H]1CC(C(=O)NCCNC(=O)CCOCCOCCOCCOCCOCCOCCOCCOCCOCCOCCOCCOC)C[C@@H](O[C@@H]2O[C@@H](CO)[C@H](O)C(O[C@@H](CC3CCCCC3)C(=O)O)C2NC(C)=O)C1OC1O[C@@H](C)C(O)[C@H](O)[C@@H]1O` (stereo partly shown) [compound of Formula (I)] displayed an MST of 41 days and an increased lifespan of 64%. The “exposure-response for remission (Fx > IC50, Fx > IC90, Cmax, AUC vs response category)” value in data set [2] is “significant overlap in all exposure-response metrics relating to remission for those subjects attaining CR and those with PD”. In data set [3], the “increase of sensitivity of LSC to cytarabine treatment” value is “approximately 20 fold”. Besides, in data set [4] (10 mg/kg/dose), the “CR with incomplete recovery (CRi)” value is listed as 0 n and the “Morphologic Leukemia-Free State (MLFS)” value turned out to be 0 n. In data set [4] (20 mg/kg/dose), the “CR with incomplete recovery (CRi)” value was found to be 0 n and the “Morphologic Leukemia-Free State (MLFS)” value turned out to be 0 n. Besides, in data set [4] (Phase 1), the “All-Cause Mortality 30 days” value was 0 n, the “CR/CRi Rate: Cytogenetics (SWOG) Favorable risk” value is on record as 0 n, the “CR/CRi Rate: FLT3-ITD mutated” value was 0 n and the “CR/CRi Rate: Relapsed ≥12-<24 months” value is on record as 0 n. Also, in data set [4] (Phase 1), the “Partial Remission (PR)” value is 0 n. Besides, the “CR Rate: Cytogenetics Favorable risk” value in data set [4] (Phase 1 subgroup) was found to be 0 n. In data set [5], the “gastrointestinal mucositis as measured by intestinal weight” value was “protects against chemotherapy induced gastrointestinal mucositis”; the “intestinal erosion, villous loss, and macrophage infiltration” value is recorded as “ameliorated”.

The record behind these values is US11707474B2, “Methods for treating acute myeloid leukemia and related conditions” (GlycoMimetics, Inc., priority 2018, dated 2023).
